# From US20250270316A1, “PHARMACEUTICAL COMBINATION AND USE THEREOF” (TIANJIN LIPOGEN TECHNOLOGY CO., LTD, priority 2021, published 2025)
# Where “and” joins values, the source holds several entries; their conditions need not be identical. Equal values may be shown once.
# B1: Camrelizumab: marketed PD-1 inhibitor monoclonal antibody (antibody, chains of the INN, looked up, V domains shown)
# VH: EVQLVESGGGLVQPGGSLRLSCAASGFTFSSYMMSWVRQAPGKGLEWVATISGGGANTYYPDSVKGRFTISRDNAKNSLYLQMNSLRAEDTAVYYCARQLYYFDYWGQGTTVTVSS
# VL: DIQMTQSPSSLSASVGDRVTITCLASQTIGTWLTWYQQKPGKAPKLLIYTATSLADGVPSRFSGSGSGTDFTLTISSLQPEDFATYYCQQVYSIPWTFGGGTKVEIK
# B2: Tislelizumab: marketed PD-1 inhibitor monoclonal antibody (antibody, chains of the INN, looked up)
# heavy: QVQLQESGPGLVKPSETLSLTCTVSGFSLTSYGVHWIRQPPGKGLEWIGVIYADGSTNYNPSLKSRVTISKDTSKNQVSLKLSSVTAADTAVYYCARAYGNYWYIDVWGQGTTVTVSSASTKGPSVFPLAPCSRSTSESTAALGCLVKDYFPEPVTVSWNSGALTSGVHTFPAVLQSSGLYSLSSVVTVPSSSLGTKTYTCNVDHKPSNTKVDKRVESKYGPPCPPCPAPPVAGGPSVFLFPPKPKDTLMISRTPEVTCVVVAVSQEDPEVQFNWYVDGVEVHNAKTKPREEQFNSTYRVVSVLTVVHQDWLNGKEYKCKVSNKGLPSSIEKTISKAKGQPREPQVYTLPPSQEEMTKNQVSLTCLVKGFYPSDIAVEWESNGQPENNYKTTPPVLDSDGSFFLYSKLTVDKSRWQEGNVFSCSVMHEALHNHYTQKSLSLSLG
# light: DIVMTQSPDSLAVSLGERATINCKSSESVSNDVAWYQQKPGQPPKLLINYAFHRFTGVPDRFSGSGYGTDFTLTISSLQAEDVAVYYCHQAYSSPYTFGQGTKLEIKRTVAAPSVFIFPPSDEQLKSGTASVVCLLNNFYPREAKVQWKVDNALQSGNSQESVTEQDSKDSTYSLSSTLTLSKADYEKHKVYACEVTHQGLSSPVTKSFNRGEC
# Columns and labels:
# Format in all cases: in vivo, mouse
# [1] = tested on: colorectal cancer MC38 humanized CD274 cell; assay: Example 12: MC38 humanized CD274 xenograft model, sequential administration of Imiquimod and RB0005; details: i.t.; RB0005 1 mg/kg, Imiquimod 5 mg/kg; G4 sequential: agonist first, PD-L1 inhibitor after 48 h, total of 3 times
# Protocol: (§1) Tumor cells were cultured and passaged, cells were collected at the logarithmic phase, and formulated into a concentration of (1.0×10^7) per milliliter of cell suspension with 0.1 ml (with a cell number of 1.0×10^6) being injected into the right flank of the mice, the tumor grew to a diameter of about 5 mm within about 10 days, and the model was successfully established, they were randomly divided into 8 groups.
# (§2) Tumor weight inhibitory rate=[1−average tumor weight of experimental group (G2/G3/G4)/average tumor weight of negative control group G1)]×100%.
# [2] = tested on: colorectal cancer MC38 humanized CD274 cell; assay: Example 6: MC38 humanized CD274 xenograft model, LPG2006 single dosage form with different Imiquimod doses; details: i.t. every other day x3
# Protocol: as §1, §2
# (§3) After a colorectal cancer MC38 humanized CD274 cell subcutaneously-Xenograft tumor model in mice was successfully established, random grouping was performed, and each group had 6-8 mice, which were administered once every two days with a total of 3 times.
# [3] = tested on: colorectal carcinoma MC38; assay: Example 1: MC38 subcutaneous xenograft tumor model in mice, RB0005 and Imiquimod; details: as of the end; i.t. every other day; RB0005 1 mg/kg, Imiquimod 5 mg/kg, combination in single dosage form; tumor volume >2000 mm^3 counted as death
# Protocol: C57/BL6JNifdc mouse, female, body weight of 17-22 g, aged 6-8 weeks, SPF grade, purchased from Beijing Vital River Laboratory Animal Technology Co., Ltd. [Experimental Animal Quality Certificate No.: SCXK (Beijing) 2016-0006].
# as §1, §2
# The anti-tumor effect of a pharmaceutical combination composed of PD-L1 inhibitor RB0005 and a TLR7/TLR8 agonist Imiquimod (LPG2005) was tested using a xenograft tumor model, i.e., the inhibitory effect on the growth of subcutaneous xenograft tumor in mice.
# After successfully establishing a subcutaneous xenograft tumor model of colorectal carcinoma MC38 in mice, it was randomly grouped with 6-8 mice per group. The mice were administered once every two days, with a total of three times followed by observation until 15 days.
# colorectal cancer MC38 = assay: Example 3: MC38 xenograft tumor model in mice, RB0005 and different doses of Imiquimod; details: i.t. every other day x3; RB0005 1 mg/kg (G2), Imiquimod 5 mg/kg (G5), both in single dosage form (G8)
# Protocol: as §1, §2
# A colorectal cancer MC38 Xenograft tumor model in mice was used to test an anti-tumor effect of a pharmaceutical combination consisting of a PD-L1 inhibitor RB0005 and different doses of TLR7/TLR8 agonists Imiquimod, that is, the inhibitory effect on the growth of subcutaneous xenograft tumor in mice.
# After a subcutaneous xenograft tumor model in mice was successfully established, random grouping was performed, and each group had 8 mice, which were administered once every two days.
# [4] = tested on: colorectal cancer MC38 humanized PD1; assay: Example 10.1: MC38 humanized PD1 xenograft model, marketed PD-1 inhibitors and Imiquimod; details: i.t. every other day x3; PD-1 antibody 10 mg/kg, Imiquimod (LPG2005) 5 mg/kg, combinations as single preparation
# Protocol: as §1, §2
# 10.1 Anti-Tumor Effect of Composite Preparation (Single Dosage Form) Consisting of a Marketed PD-1 or PD-L1 Inhibitor and a TLR7/8 Agonist Imiquimod
# After a colorectal cancer MC38 humanized PD1 subcutaneous xenograft tumor model was successfully established, random grouping was performed, and each group had 6-8 mice, which were administered once every two days with a total of 3 times.
# [5] = tested on: colorectal cancer CT26 humanized CD274 cell; assay: Example 11: CT26 humanized CD274 xenograft model, LPG2006; details: CT26.sgcd274 CD274, i.t. every other day x3, Imiquimod 5 mg/kg
# Protocol: as §1, §2
# Combination LPG2006 (Single Dosage Form) Consisting of PD-L1 Inhibitor RB0005 and Imiquimod, CT26 Tumor Model
# After a colorectal cancer CT26 humanized CD274 cell subcutaneous xenograft tumor model in mice was successfully established, random grouping was performed, and each group had 6-8 mice, which were administered once every two days with a total of 3 times.
# [6] = tested on: colorectal carcinoma MC38 (humanized PD-1 model); assay: Example 2: humanized PD-1 MC38 subcutaneous xenograft tumor model in mice, RB0004 and Imiquimod; details: Imiquimod 5 mg/kg i.t., RB0004 10 mg/kg i.p.
# Protocol: as §1, §2
# The anti-tumor effect of a pharmaceutical combination composed of PD-1 inhibitor RB0004 and a TLR7/TLR8 agonist Imiquimod was tested using a xenograft tumor model, i.e., the inhibitory effect on the growth of subcutaneous xenograft tumor in mice.
# After successfully establishing a humanized PD-1 subcutaneous xenograft tumor model of colorectal carcinoma MC38 in mice, they were randomly grouped with 8 mice per group and administered once every two days.
# [7] = tested on: colorectal cancer MC38 humanized CD274 cell; assay: Example 7: MC38 humanized CD274 xenograft model, intraperitoneal vs intratumoral administration; details: every other day x3
# Protocol: as §1, §2, §3
# [8] = tested on: colorectal cancer MC38 humanized CD274 cell; assay: Example 10.2: MC38 humanized CD274 xenograft model, Durvalumab or RB0005 and Imiquimod; details: i.t. every other day x3; Durvalumab or RB0005 1 mg/kg, Imiquimod (LPG2005) 5 mg/kg, combinations as single preparation
# Protocol: as §1, §2, §3
# [9] = tested on: colorectal cancer MC38 humanized CD274 cell; assay: Example 8: MC38 humanized CD274 xenograft model, RB0005 and Gardiquimod; details: i.t. every other day x3; RB0005 1 mg/kg, Gardiquimod 5 mg/kg, combination as single preparation
# Protocol: as §1, §2
# Anti-Tumor Effect of Pharmaceutical Combination Consisting of PD-L1 Inhibitor RB0005 and Other Types of TLR7/8 Agonists (Gardiquimod)
# as §3
# [10] = tested on: colorectal cancer MC38 humanized CD274 cell; assay: Example 9: MC38 humanized CD274 xenograft model, RB0005 and Resiquimod; details: i.t. every other day x3; RB0005 1 mg/kg, Resiquimod 5 mg/kg, combination as single preparation
# Protocol: as §1, §2
# Anti-Tumor Effect of Pharmaceutical Combination Consisting of PD-L1 Inhibitor RB0005 and Other Types of TLR7/8 Agonists (Resiquimod)
# as §3
# [11] = Imiquimod 6.32 mg/kg (G4), with RB0005 1 mg/kg in single dosage form (G7)
# [12] = Imiquimod 20 mg/kg (G5), with RB0005 1 mg/kg in single dosage form (G8)
# [13] = RB0005 1 mg/kg (G2), Imiquimod 2 mg/kg (G3), both in single dosage form (G6)
# [14] = intratumoral injection, RB0005 1 mg/kg (G4), Imiquimod 5 mg/kg (G6), LPG2006 single preparation (G8)
molecule,measurement,setting,value
CC(C)Cn1cnc2c(N)nc3ccccc3c21 [Imiquimod],IRTW (tumor weight inhibition rate),[1],34.8%
same,Tumor Weight,[1],1.30 g
same,IRTW (tumor weight inhibition rate),[2]; [11],58.5%
same,Tumor Weight,[2]; [11],2.0 g
same,IRTW (tumor weight inhibition rate),[2]; [12],47.4%
same,Tumor Weight,[2]; [12],1.8 g
same,IRTW (tumor weight inhibition rate),[2]; [13],27.5%
same,Tumor Weight,[2]; [13],2.5 g
same,survival rate in mice,[3],50%
same,IRTW (tumor weight inhibition rate),colorectal cancer MC38,23.35%
same,Tumor Weight,colorectal cancer MC38,2.70 g
same,Tumor Weight,[4],1.93 g
same,IRTW (tumor weight inhibition rate),[5]; LPG2006 (RB0005 1 mg/kg + LPG2005 5 mg/kg),42%
same,Tumor Weight,"[5]; RB0005 1 mg/kg, LPG2006 single preparation",1.05 g
same,IRTW (tumor weight inhibition rate),[6]; every other day x3,42.71%
same,Tumor Weight,[6]; every other day x3,3.62 g
same,survival rate in mice,"[6]; as of the end, every other day x3, combination in separate dosage forms",40%
same,growth of the tumor volume,[6]; vs solvent control,slower than that in the solvent control group
same,Tumor Weight,"[7]; intraperitoneal injection, RB0005 1 mg/kg (G3), Imiquimod 5 mg/kg (G5), LPG2006 single preparation (G7)",3.74 g
same,IRTW (tumor weight inhibition rate),[7]; [14],23.5%
same,Tumor Weight,[7]; [14],2.6 g
same,IRTW (tumor weight inhibition rate),[8],48.8%
same,Tumor Weight,[8],0.73 g
CCNCc1nc2c(N)nc3ccccc3c2n1CC(C)(C)O [Gardiquimod],IRTW (tumor weight inhibition rate),[9],42% and 41.6%
same,Tumor Weight,[9],1.81 g
CCOCc1nc2c(N)nc3ccccc3c2n1CC(C)(C)O [Resiquimod],IRTW (tumor weight inhibition rate),[10],40% and 40.2%
same,Tumor Weight,[10],1.81 g
Sintilimab: marketed PD-1 inhibitor monoclonal antibody,IRTW (tumor weight inhibition rate),[4],3.9%
same,Tumor Weight,[4],1.47 g
Durvalumab: marketed anti PD-L1 monoclonal antibody,IRTW (tumor weight inhibition rate),[8],21% and 20.9%
same,Tumor Weight,[8],1.13 g
Toripalimab: marketed PD-1 inhibitor monoclonal antibody,IRTW (tumor weight inhibition rate),[4],49.7%
same,Tumor Weight,[4],0.92 g
B1,IRTW (tumor weight inhibition rate),[4],19.6%
same,Tumor Weight,[4],1.23 g
B2,IRTW (tumor weight inhibition rate),[4],61.4%
same,Tumor Weight,[4],0.59 g
